Test results taken from US20160157477A1, “USE OF VISUAL CUES TO ENHANCE BIRD REPELLENT COMPOSITIONS” (ARKION LIFE SCIENCES, LLC, priority 2014, published 2016).

What was measured:
birds = details: '678 patent; cited from earlier work
red-winged blackbirds [1] = details: anthraquinone only, cited from earlier work
red-winged blackbirds [2] = assay: Threshold AQ concentration previously established for red-winged blackbirds (Werner et al. 2009); format: in vivo, red-winged blackbirds (Agelaius phoeniceus); details: 80% repellency, anthraquinone only, interpolated between the 70% and 100% values
Experimental: The concentration response of AQ plus TiO2 feeding cue was tested. This experiment was designed to establish a concentration response relationship of AQ plus 0.2% TiO2 treated sunflower seeds for blackbirds in captivity. The experiment was also designed to establish a threshold concentration of AQ necessary for blackbird feeding repellency when reduced by varying the concentration of AQ based repellent combined with a TiO2 feeding cue. This optimized AQ concentration was expected to be less than the threshold AQ concentration previously established for red-winged blackbirds done by Werner et al. (2009) and shown in column 2 of Table 1. Daily sunflower consumption was measured throughout the pretreatment and test phases of the experiment as previously described. Greater than 80% repellency during a captive feeding trial is the operational level for an effective repellent as has been documented in the field using AQ repellents, see Werner et al. (2009) and (2011).

## O=C1c2ccccc2C(=O)c2ccccc21 [Anthraquinone Only, 9,10-anthraquinone]
birds
  AQ concentration to achieve 74% repellency: 1778 ppm
red-winged blackbirds [1]; 20% repellency
  [AQ] ppm by weight for RWBL Repellency 20%: 193 (222*20/23) ppm by weight
red-winged blackbirds [1]; 35% repellency
  [AQ] ppm by weight for RWBL Repellency 35%: 572 (556*34/35) ppm by weight
red-winged blackbirds [1]; 50% repellency
  [AQ] ppm by weight for RWBL Repellency 50%: 538 (560*50/52) ppm by weight
red-winged blackbirds [1]; 70% repellency
  [AQ] ppm by weight for RWBL Repellency 70%: 1682 (1778*74/70) ppm by weight
red-winged blackbirds [1]; 100% repellency
  [AQ] ppm by weight for RWBL Repellency 100%: 1846 (1994*100/108) ppm by weight
red-winged blackbirds [2]
  [AQ] ppm by weight for RWBL Repellency 80% (expected AQ concentration): 1737 ((1846 − ppm by weight
red-winged blackbirds [2]; listed as AQ
  [AQ] ppm by weight for RWBL Repellency 80% (expected AQ concentration): 1737 ppm by weight
red-winged blackbirds [2]; listed as straight AQ
  [AQ] ppm by weight for RWBL Repellency 80% (expected AQ concentration): 1737 ppm by weight
